Assay results reported in patent US5786348A, “Methods for preparation and use of 1α,24(S)-dihydroxy vitamin D2” (priority 1995, dated 1998).
Where two headings read alike, the source gives them in different places.

How the values were obtained:
vitamin D receptor (VDR) = molecular target: T1, vitamin D receptor (VDR) (Homo sapiens, UniProt P11473); experiment: Vitamin D-dependent transcriptional activation: growth hormone production in COS-1 cells co-transfected with VDR plasmid and VDRE-GH reporter; type: cell-based; conditions: for Total GH Production: averages of duplicate determinations
T1 sequence (P11473 1-427): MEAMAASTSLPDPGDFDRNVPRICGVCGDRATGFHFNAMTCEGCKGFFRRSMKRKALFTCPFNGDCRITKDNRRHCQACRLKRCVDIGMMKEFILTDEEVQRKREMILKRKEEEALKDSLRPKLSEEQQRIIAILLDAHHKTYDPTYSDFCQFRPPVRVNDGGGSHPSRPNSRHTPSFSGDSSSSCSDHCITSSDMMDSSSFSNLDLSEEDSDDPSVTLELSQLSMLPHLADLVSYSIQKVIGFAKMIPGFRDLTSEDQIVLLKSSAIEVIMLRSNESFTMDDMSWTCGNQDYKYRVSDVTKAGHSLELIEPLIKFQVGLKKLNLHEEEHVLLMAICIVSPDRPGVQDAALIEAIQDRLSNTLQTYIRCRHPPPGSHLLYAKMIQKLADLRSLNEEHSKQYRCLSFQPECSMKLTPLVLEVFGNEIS
Experimental: The biological activity in vitro of chemically synthesized 1α,24(S)-(OH)2 D2 and 1α,24(R)-(OH)2 D2 was measured using a vitamin D-dependent transcriptional activation model system in which a vitamin D receptor (VDR)-expressing plasmid pSG5-hVDR1/3and a plasmid p(CT4)^4 TKGH containing a Growth Hormone (GH)-gene, under the control of a vitamin D-responsive element (VDRE) were co-transfected into Green monkey kidney, COS-1 cells. DNA's for these two vectors were supplied by Dr. Mark Haussler, Department of Biochemistry, University of Arizona, Tucson, Ariz.
Transfected cells were incubated with vitamin D metabolites and growth hormone production was measured.

[1] = test system: 1,25-(OH)2 D3 receptor site; conditions: Ishizuka et al., Steroids 1981, 1982; cited from earlier work
bovine thymus VDR = molecular target: T2, bovine thymus VDR (Bos taurus, UniProt Q28037); experiment: Radioreceptor assay with bovine thymus VDR (Incstar), displacement of 3H-1α,25-(OH)2 D3; type: binding; conditions: bovine thymus VDR radioreceptor assay; read-out: Half-maximal binding (converted)
T2 construct: commercially available kit of bovine thymus VDR; purchased Incstar (Stillwater, Minn.); host or cells: bovine thymus
T2 sequence (Q28037 1-426): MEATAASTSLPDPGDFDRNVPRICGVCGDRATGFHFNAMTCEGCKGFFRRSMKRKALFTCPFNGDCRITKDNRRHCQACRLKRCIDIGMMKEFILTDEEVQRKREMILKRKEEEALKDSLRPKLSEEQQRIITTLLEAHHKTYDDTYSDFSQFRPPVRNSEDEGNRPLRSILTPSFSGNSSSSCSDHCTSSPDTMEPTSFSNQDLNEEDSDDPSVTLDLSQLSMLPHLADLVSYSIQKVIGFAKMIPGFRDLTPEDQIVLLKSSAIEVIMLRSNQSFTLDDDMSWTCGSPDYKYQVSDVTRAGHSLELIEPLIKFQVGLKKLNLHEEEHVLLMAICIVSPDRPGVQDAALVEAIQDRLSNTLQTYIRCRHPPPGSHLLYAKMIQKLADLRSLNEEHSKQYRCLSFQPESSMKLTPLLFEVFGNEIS
From the text: Purified 1α,24(S)-(OH)2 D2 was quantitated by photodiode array spectrophotometry and assayed in the radioreceptor assay.
The purified 1α,24(R)-(OH)2 D2 and 1α,24(S)-(OH)2 D2 epimers were quantitated by ultraviolet spectroscopy. The concentration of 1α,24(R)-(OH)2 D2 required to produce the same displacement of ^3 H-1α,25-(OH)2 D3 tracer from the receptor was 20 to 30 times that required for 1α,24(S)-(OH)2 D2, as shown in FIG. 4.

[2] = human, in vivo; cited from earlier work
[3] = Blood metabolite levels in osteoporotic women given 1α-OH-D2; type: in vivo, human; conditions: one day after a single 2 μg dose
Experimental: An increase in the production of 1α,24(S)-(OH)2 D2 relative to 1α,25-(OH)2 D2 has also been observed by the present inventors in human females who received 1α-OH-D2 as part of an investigation of that drug for the treatment of osteoporosis. Following either a single dose of 2 μg of 1α-OH-D2 or daily doses of 8 μg/day for one week, blood was collected and analyzed for the metabolites 1α,24(S)-(OH)2 D2 and 1α,25-(OH)2 D2. Lipid was extracted from the blood, and the metabolites were purified by HPLC using standard methods and quantified with the radioreceptor assay produced by Incstar (Stillwater, Minn.). One day after a single 2 μg dose, the level of 1α,24(S)-(OH)2 D2 was undetectable with the 1α,25-(OH)2 D2 level being approximately 11 pg/ml. In contrast, one day following the last dose of 8 μg, the level of 1α,24(S)-(OH)2 D2 averaged 9 pg/ml with the 1α,25-(OH)2 D2 level averaging 30 pg/ml.

Hep 3B cells = experiment: Metabolism of 1α-OH-D2 in Hep 3B human hepatoma cells at rising substrate concentration; type: in vitro ADME; conditions: Experiment 2, photodiode array spectrophotometry
Experimental: Substantially pure 1α-(OH)D2 was obtained from Bone Care International, Inc. of Madison, Wis. The 1α-(OH)D2 was cultured for 48 hours with cells derived from a human hepatoma, Hep 3B, in medium devoid of fetal calf serum using known methods in the art.
Lipid extracts of the combined medium and cells were generated by known methods in the art and were subjected to high pressure liquid chromatography (HPLC) on Zorbax-S1L developed with hexane/isopropanol/methanol (91:7:2). The putative 1α,24(?)-(OH)2 D2 metabolite eluted between the parent 1α-(OH)D2 and standard 1α,25-(OH)2 D2 (also obtained from Bone Care International, Inc. of Madison, Wis.). (As used herein, the term "1α,24(?)-(OH)2 D2 " is meant to indicate that the epimeric form has not been identified.) The 1α,24(?)-(OH)2 D2 was further purified by this HPLC system before the metabolite's identification was undertaken using mass spectrometry analysis.
Hep 3B cells were incubated with 1α-OH-D2, as described above, at final concentrations of 1, 10, or 100 nM (Experiment 1), and 1 or 10 μM (Experiment 2) and 1α,24(S)-(OH)2 D2 was extracted and purified. The 1α,24(S)-(OH)2 D2 and 1α,25-(OH)2 D2 metabolites were quantitated by recovered radiolabel (Experiment 1) or by photodiode array spectrophotometry (Experiment 2).

[4] = type: in vivo, rat
Experimental: Vitamin D2 or 24-OH-D2 was administered (either oral or intraperitoneal supplementation) to vitamin D-deficient rats. Lipid extracts of the plasma were prepared and the metabolites purified by the method of Horst et al. (Horst, R. L., Koszewski, N. J. and Reinhardt, T. A., Biochem., 29:578-82 (1990)) described below for synthesyzing standard biological 1α,24-(OH)2 D2.
Standard biological 1α,24-(OH)2 D2 was synthesized in vitro from 24-OH-D2 by incubating 10 μg of 24-OH-D2 in flask containing 5 ml of 20% kidney homogenates made from vitamin D-deficient chicks. The product of this reaction was isolated by HPLC and identified by mass spectrometry.

[5] = inducer molar concentration 10^-7
[6] = inducer molar concentration 10^-8
[7] = inducer molar concentration 10^-9
[8] = inducer molar concentration 10^-5
[9] = inducer molar concentration 10^-6

For `C=C1/C(=C\C=C2/CCC[C@]3(C)[C@@H]([C@H](C)/C=C/[C@](C)(O)C(C)C)CC[C@@H]23)C[C@@H](O)C[C@@H]1O` [1α,24(R)-(OH)2 D2, 1α,24(R)-dihydroxy vitamin D2], the “Net vitamin D-inducible GH-production” value (vitamin D receptor (VDR); [5]) was 1256 ng/mL, the “Total GH Production” value (vitamin D receptor (VDR); [5]) was 1300 ng/mL and the “Net vitamin D-inducible GH-production” value (vitamin D receptor (VDR); [6]) was 1056 ng/mL. The “Total GH Production” value (vitamin D receptor (VDR); [6]) was 1100 ng/mL, the “Net vitamin D-inducible GH-production” value (vitamin D receptor (VDR); [7]) was 36 ng/mL and the “Total GH Production” value (vitamin D receptor (VDR); [7]) was 80 ng/mL.

In the case of `C=C1/C(=C\C=C2/CCC[C@]3(C)[C@@H]([C@H](C)CC[C@@H](O)C(C)C)CC[C@@H]23)C[C@@H](O)C[C@@H]1O` [1α,24(R)-(OH)2 D3, 1α,24(R)-dihydroxyvitamin D3], the “Binding of the 1,25-(OH)2 D3 receptor site relative to 1,25-(OH)2 D3” value [1] is listed as “more tightly”.

Compound `C=C1/C(=C\C=C2/CCC[C@]3(C)[C@@H]([C@H](C)/C=C/[C@H](C)C(C)(C)O)CC[C@@H]23)C[C@@H](O)C[C@@H]1O` [1α,25-(OH)2D2, 1α,25-dihydroxy vitamin D2, reference compound] has an IC50 (bovine thymus VDR) of 0.187 nM.

In the case of `C=C1/C(=C\C=C2/CCC[C@]3(C)[C@@H]([C@H](C)CCCC(C)C)CC[C@@H]23)C[C@@H](O)C[C@@H]1O` [1α-(OH)D3, 1α-hydroxy vitamin D3], the “Safety of dosage levels of 2.0 μg/day or greater” value [2] is given as “not safely obtained”.

For `C=C1/C(=C\C=C2/CCC[C@]3(C)[C@@H]([C@H](C)/C=C/[C@H](C)C(C)C)CC[C@@H]23)C[C@@H](O)C[C@@H]1O` [1α-OH-D2, 1α-hydroxy vitamin D2], the “Blood level of metabolite 1α,24(S)-(OH)2 D2” value [3] was “undetectable”, the “Rate of Production of 1α,24(S)-(OH)2 D2” value (Hep 3B cells; substrate concentration 1 μM) was 4.9 pmol per 10^6 cells/day and the “Rate of Production of 1α,24(S)-(OH)2 D2” value (Hep 3B cells; substrate concentration 10 μM) was 59 pmol per 10^6 cells/day. For the same compound, the “Rate of Production of 1α,25-(OH)2 D2” value (Hep 3B cells; substrate concentration 10 μM) was 7.4 pmol per 10^6 cells/day.

In the case of `C=C1CC[C@H](O)C/C1=C/C=C1\CCC[C@]2(C)[C@@H]([C@H](C)/C=C/C(C)(O)C(C)C)CC[C@@H]12` (stereo partly shown) [24-OH-D2, 24-hydroxyvitamin D2], the “Metabolite isolated from plasma lipid extracts” value ([4]; rat, in vivo) was “co-migrated on HPLC with the standard 1α,24-(OH)2 D2”.

In the case of `C=C1CC[C@H](O)C/C1=C/C=C1\CCC[C@]2(C)[C@@H]([C@H](C)CCCC(C)(C)O)CC[C@@H]12` [25-OH-D3, 25-hydroxy vitamin D3, reference compound], the “Net vitamin D-inducible GH-production” value (vitamin D receptor (VDR); [8]) was 731 ng/mL, the “Total GH Production” value (vitamin D receptor (VDR); [8]) was 775 ng/mL and the “Net vitamin D-inducible GH-production” value (vitamin D receptor (VDR); [9]) was 1056 ng/mL. The “Total GH Production” value (vitamin D receptor (VDR); [9]) was 1100 ng/mL, the “Net vitamin D-inducible GH-production” value (vitamin D receptor (VDR); [5]) was 201 ng/mL and the “Total GH Production” value (vitamin D receptor (VDR); [5]) was 245 ng/mL.

For `C=C1CC[C@H](O)C/C1=C/C=C1\CCC[C@]2(C)[C@@H]([C@H](C)/C=C/[C@H](C)C(C)C)CC[C@@H]12` [vitamin D2, Vitamin D2], the “Metabolite isolated from plasma lipid extracts” value ([4]; vitamin D-deficient rats, HPLC against standard biological 1α,24-(OH)2 D2) was “co-migrated on HPLC with the standard 1α,24-(OH)2 D2”.

With `C=C1CC[C@H](O)C/C1=C/C=C1\CCC[C@]2(C)[C@@H]([C@H](C)CCCC(C)C)CC[C@@H]12` [vitamin D3] the 24-OH-D3 in plasma ([4]; comparable vitamin D-deficient rats) was “no detectable”.
